Source: patent publication US20220177538A1, “CO-AGONISTS AT GLP-1 AND GIP RECEPTORS SUITABLE FOR ORAL DELIVERY” (Novo Nordisk A/S, priority 2020, published 2022)
Where two headings read alike, the source gives them in different places. Starred links: 1 amine or outer side, 2 acyl side, 3 side chain; linkers in the order of their positions; H or OH if unused. Non-standard residues stand in square brackets, D forms with d. Residues, ends and D or L forms follow the SMILES beside them. Groups on a side chain read outwards from the residue. *: point of attachment. C20 diacid = O=C(O)CCCCCCCCCCCCCCCCCCC(=O)*; C18 diacid = O=C(O)CCCCCCCCCCCCCCCCC(=O)*; γGlu = O=C(O)[C@H](CCC(=O)[*:2])N[*:1]; εLys = N[C@@H](CCCCN[*:1])C(=O)[*:2]; Aib = CC(C)(N)C(=O)O

What was measured:
human GLP-1 receptor = human GLP-1 receptor (Homo sapiens, UniProt P43220); test: In vitro functional potency, CRE luciferase reporter, whole BHK cells (hGLP-1R); assay type: cell-based; parameters: expressed in transfected cells; host or cells: BHK (parent line BHKTS13), clone BHK CRE luc2P hGLP-1R; details: BHK CRE luc2P hGLP-1R cells
Sequence of human GLP-1 receptor (P43220 24-463): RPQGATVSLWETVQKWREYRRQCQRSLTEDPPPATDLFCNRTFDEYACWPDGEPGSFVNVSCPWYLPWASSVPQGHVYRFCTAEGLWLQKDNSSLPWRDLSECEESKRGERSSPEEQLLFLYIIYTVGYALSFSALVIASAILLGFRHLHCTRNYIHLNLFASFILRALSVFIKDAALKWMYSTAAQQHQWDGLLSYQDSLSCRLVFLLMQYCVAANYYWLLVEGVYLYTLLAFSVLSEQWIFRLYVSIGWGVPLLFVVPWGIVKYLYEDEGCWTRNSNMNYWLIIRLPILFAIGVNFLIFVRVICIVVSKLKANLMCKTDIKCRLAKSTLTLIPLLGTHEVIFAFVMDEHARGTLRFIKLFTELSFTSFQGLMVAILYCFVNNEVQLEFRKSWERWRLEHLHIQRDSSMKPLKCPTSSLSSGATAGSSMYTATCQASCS
Procedure: (§1) The in vitro functional potency is the measure of target receptor activation in a whole cell assay.
(§2) In vitro functional potency was determined by measuring the response of the target receptor in a reporter gene assay in individual cell lines. […] When the respective receptor is activated, it results in the production of cAMP, which in turn results in expression of the luciferase protein. When assay incubation is completed, luciferase substrate (luciferin) is added resulting in the enzymatic conversion of luciferin to oxyluciferin and producing bioluminescence. The luminescence is measured as the readout for the assay.
(§3) The cells lines used in these assays were BHK cells with BHKTS13 as a parent cell line. The cell lines were derived from a clone containing the CRE luciferase element and were established by further transfection with the respective human receptor to obtain the relevant cell line: BHK CRE luc2P hGLP-1R or BHK CRE luc2P hGIPR. The cells were cultured at 37° C. with 5% CO2 in Cell Culture Medium. They were aliquoted and stored in liquid nitrogen. The cells were kept in continuous culture and were seeded out the day before each assay.
(§4) GLP-1R Cell Culture Medium consisted of DMEM medium with 10% FBS, 500 µg/mL G418, and 300 µg/mL hygromycin. GIPR Cell Culture Medium consisted of DMEM medium with 10% FBS, 400 µg/mL G418, and 300 µg/mL hygromycin. Assay Buffer consisted of DMEM w/o phenol red, 10 mM Hepes, 1× Glutamax. 1% ovalbumin, and 0.1% Pluronic F-68 with the addition of HSA at twice the final assay concentration.
(§5) 1) Cells were plated at 5000 cells/well and incubated overnight in the assay plate. 2) Cells were washed once in DPBS. 3) Stocks of the test compounds and reference compounds in concentrations ranging from […] were diluted 1:150 in Assay Buffer. Compounds were then diluted 1:10 in column 1 of a 96 deep well dilution plate and then carried across the row creating a 3.5 fold, 12 point dilution curve. 4) Assay Buffer (50 μl aliquot) with or without HSA was added to each well in the assay plate. 5) A 50 μl aliquot of compound or blank was transferred from the dilution plate to the assay plate containing the Assay Buffer with or without HSA. 6) The assay plate was incubated for 3 h in a 5% CO2 incubator at 37° C. 7) The cells were washed once with DPBS. 8) A 100 μl aliquot of DPBS was added to each well of the assay plate. 9) A 100 μl aliquot of steadylite plus reagent (light sensitive) was added to each well of the assay plate. 10) Each assay plate was covered with aluminum foil to protect it from light and shaken at 250 RPM for 30 min at room temperature. 11) Each assay plate was read in a microtiter plate reader.
(§6) The data from the microtiter plate reader was first regressed in an Excel in order to calculate the x-axis, log scale concentrations based on the individual test compound's stock concentration and the dilutions of the assay. […] The software performs a non-linear regression (log(agonist) vs response). A minimum of two replicates was measured for each sample. The reported values are averages of the replicates.

human GIP receptor = biological target: T1, human GIP receptor (Homo sapiens, UniProt P48546); test: In vitro functional potency, CRE luciferase reporter, whole BHK cells (hGIPR); assay type: cell-based; details: BHK CRE luc2P hGIPR cells
T1 construct: expressed in transfected cells; host or cells: BHK (parent line BHKTS13), clone BHK CRE luc2P hGIPR
T1 sequence (P48546 22-466): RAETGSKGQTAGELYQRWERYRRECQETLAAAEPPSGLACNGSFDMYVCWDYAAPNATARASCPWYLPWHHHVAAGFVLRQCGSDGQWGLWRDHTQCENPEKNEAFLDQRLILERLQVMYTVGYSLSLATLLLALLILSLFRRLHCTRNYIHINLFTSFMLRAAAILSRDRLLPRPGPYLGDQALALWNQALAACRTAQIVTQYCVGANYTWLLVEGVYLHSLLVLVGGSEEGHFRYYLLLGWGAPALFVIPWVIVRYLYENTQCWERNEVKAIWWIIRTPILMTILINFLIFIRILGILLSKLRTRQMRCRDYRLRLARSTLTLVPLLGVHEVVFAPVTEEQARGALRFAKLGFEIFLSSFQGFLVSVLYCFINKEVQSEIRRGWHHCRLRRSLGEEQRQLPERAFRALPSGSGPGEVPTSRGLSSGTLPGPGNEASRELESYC
Procedure: as §1, §2, §3, §4, §5, §6

[1] = 0% HSA, read-out: hGLP-1R, CRE Luc 0% HSA EC50
[2] = hGLP-1R, CRE Luc 1% HSA EC50, 1% HSA
[3] = 0% HSA, read-out: hGIPR, CRE Luc 0% HSA EC50
[4] = hGIPR, CRE Luc 1% HSA EC50, 1% HSA

Compound | EC50 (human GLP-1 receptor; [1]) [nM] | EC50 (human GLP-1 receptor; [2]) [nM] | EC50 (human GIP receptor; [3]) [nM] | EC50 (human GIP receptor; [4]) [nM]
CC[C@H](C)[C@H](NC(=O)[C@H](CO)NC(=O)[C@H](Cc1ccc(O)cc1)NC(=O)[C@H](CC(=O)O)NC(=O)[C@H](CO)NC(=O)[C@@H](NC(=O)[C@H](Cc1ccccc1)NC(=O)[C@@H](NC(=O)CNC(=O)[C@H](CCC(=O)O)NC(=O)C(C)(C)NC(=O)[C@@H](N)Cc1ccc(O)cc1)[C@@H](C)O)[C@@H](C)O)C(=O)N[C@@H](Cc1ccc(O)cc1)C(=O)N[C@@H](CC(C)C)C(=O)N[C@@H](CCC(=O)O)C(=O)N[C@@H](CCCCNC(=O)[C@@H](N)CCCCNC(=O)[C@@H](N)CCCCNC(=O)CC[C@H](NC(=O)CCCCCCCCCCCCCCCCCCC(=O)O)C(=O)O)C(=O)N[C@@H](CCC(N)=O)C(=O)N[C@@H](C)C(=O)N[C@@H](C)C(=O)N[C@@H](CCC(N)=O)C(=O)N[C@@H](CCC(=O)O)C(=O)N[C@@H](Cc1ccccc1)C(=O)N[C@H](C(=O)N[C@@H](CC(N)=O)C(=O)N[C@@H](Cc1c[nH]c2ccccc12)C(=O)N[C@@H](CC(C)C)C(=O)N[C@@H](CC(C)C)C(=O)N[C@@H](C)C(=O)NCC(=O)NCC(=O)N1CCC[C@H]1C(=O)N[C@@H](CO)C(=O)N[C@@H](CO)C(=O)NCC(=O)N[C@@H](C)C(=O)N1CCC[C@H]1C(=O)N1CCC[C@H]1C(=O)N1CCC[C@H]1C(=O)N[C@@H](CO)C(N)=O)C(C)C [Compound 1] (H-Y[Aib]EGTFTSDYSIYLEK([εLys-εLys-γGlu-C20 diacid])QAAQEFVNWLLAGGPSSGAPPPS-NH2) | 0.0078 | 1.66 | 0.0028 | 0.173
CC(C)C[C@H](NC(=O)[C@H](CC(C)C)NC(=O)[C@H](Cc1c[nH]c2ccccc12)NC(=O)[C@H](CC(N)=O)NC(=O)[C@@H](NC(=O)[C@H](Cc1ccccc1)NC(=O)[C@H](CCC(=O)O)NC(=O)[C@H](CCC(N)=O)NC(=O)[C@H](C)NC(=O)[C@H](C)NC(=O)[C@H](CCC(N)=O)NC(=O)[C@H](CCCCNC(=O)[C@@H](N)CCCCNC(=O)[C@@H](N)CCCCNC(=O)CC[C@H](NC(=O)CCCCCCCCCCCCCCCCCCC(=O)O)C(=O)O)NC(=O)[C@H](CCC(=O)O)NC(=O)[C@H](CC(C)C)NC(=O)[C@H](Cc1ccc(O)cc1)NC(=O)[C@H](Cc1ccc(O)cc1)NC(=O)[C@H](CO)NC(=O)[C@H](Cc1ccc(O)cc1)NC(=O)[C@H](CC(=O)O)NC(=O)[C@H](CO)NC(=O)[C@@H](NC(=O)[C@H](Cc1ccccc1)NC(=O)[C@@H](NC(=O)CNC(=O)[C@H](CCC(=O)O)NC(=O)C(C)(C)NC(=O)[C@@H](N)Cc1ccc(O)cc1)[C@@H](C)O)[C@@H](C)O)C(C)C)C(=O)N[C@@H](C)C(=O)NCC(=O)NCC(=O)N1CCC[C@H]1C(=O)N[C@@H](CO)C(=O)N[C@@H](CO)C(=O)NCC(=O)N[C@@H](C)C(=O)N1CCC[C@H]1C(=O)N1CCC[C@H]1C(=O)N1CCC[C@H]1C(=O)N[C@@H](CO)C(N)=O [Compound 2] (H-Y[Aib]EGTFTSDYSYYLEK([εLys-εLys-γGlu-C20 diacid])QAAQEFVNWLLAGGPSSGAPPPS-NH2) | 0.006 | 0.9 | 0.0038 | 0.275
CC(C)C[C@H](NC(=O)[C@H](CC(C)C)NC(=O)[C@H](Cc1c[nH]c2ccccc12)NC(=O)[C@H](CC(N)=O)NC(=O)[C@@H](NC(=O)[C@H](Cc1ccccc1)NC(=O)[C@H](CCC(=O)O)NC(=O)[C@H](CCC(N)=O)NC(=O)[C@H](C)NC(=O)[C@H](C)NC(=O)[C@H](CCC(N)=O)NC(=O)[C@H](CCCCNC(=O)[C@@H](N)CCCCNC(=O)[C@@H](N)CCCCNC(=O)CC[C@H](NC(=O)CCCCCCCCCCCCCCCCC(=O)O)C(=O)O)NC(=O)[C@H](CCC(=O)O)NC(=O)[C@H](CC(C)C)NC(=O)[C@H](Cc1ccc(O)cc1)NC(=O)[C@H](Cc1ccc(O)cc1)NC(=O)[C@H](CO)NC(=O)[C@H](Cc1ccc(O)cc1)NC(=O)[C@H](CC(=O)O)NC(=O)[C@H](CO)NC(=O)[C@@H](NC(=O)[C@H](Cc1ccccc1)NC(=O)[C@@H](NC(=O)CNC(=O)[C@H](CCC(=O)O)NC(=O)C(C)(C)NC(=O)[C@@H](N)Cc1ccc(O)cc1)[C@@H](C)O)[C@@H](C)O)C(C)C)C(=O)N[C@@H](C)C(=O)NCC(=O)NCC(=O)N1CCC[C@H]1C(=O)N[C@@H](CO)C(=O)N[C@@H](CO)C(=O)NCC(=O)N[C@@H](C)C(=O)N1CCC[C@H]1C(=O)N1CCC[C@H]1C(=O)N1CCC[C@H]1C(=O)N[C@@H](CO)C(N)=O [Compound 3] (H-Y[Aib]EGTFTSDYSYYLEK([εLys-εLys-γGlu-C18 diacid])QAAQEFVNWLLAGGPSSGAPPPS-NH2) | 0.0085 | 0.626 | 0.0069 | 0.229
CC[C@H](C)[C@H](NC(=O)[C@H](Cc1ccccc1)NC(=O)[C@H](CCC(=O)O)NC(=O)[C@H](CCCNC(=N)N)NC(=O)[C@H](C)NC(=O)[C@H](C)NC(=O)[C@H](CCC(N)=O)NC(=O)[C@H](CCCCNC(=O)[C@@H](N)CCCCNC(=O)[C@@H](N)CCCCNC(=O)CC[C@H](NC(=O)CCCCCCCCCCCCCCCCC(=O)O)C(=O)O)NC(=O)[C@H](CCC(=O)O)NC(=O)[C@H](CC(C)C)NC(=O)[C@H](Cc1ccc(O)cc1)NC(=O)[C@@H](NC(=O)[C@H](CO)NC(=O)[C@H](Cc1ccc(O)cc1)NC(=O)[C@H](CC(=O)O)NC(=O)[C@H](CO)NC(=O)[C@@H](NC(=O)[C@H](Cc1ccccc1)NC(=O)[C@@H](NC(=O)CNC(=O)[C@H](CCC(=O)O)NC(=O)[C@H](C)NC(=O)[C@@H](N)Cc1ccc(O)cc1)[C@@H](C)O)[C@@H](C)O)[C@@H](C)CC)C(=O)N[C@@H](CC(N)=O)C(=O)N[C@@H](Cc1c[nH]c2ccccc12)C(=O)N[C@@H](CC(C)C)C(=O)N[C@@H](CC(C)C)C(=O)N[C@@H](C)C(=O)NCC(=O)NCC(=O)N1CCC[C@H]1C(=O)N[C@@H](CO)C(=O)N[C@@H](CO)C(=O)NCC(=O)N[C@@H](C)C(=O)N1CCC[C@H]1C(=O)N1CCC[C@H]1C(=O)N1CCC[C@H]1C(=O)N[C@@H](CO)C(=O)O [Compound 17] (H-YAEGTFTSDYSIYLEK([εLys-εLys-γGlu-C18 diacid])QAAREFINWLLAGGPSSGAPPPS-OH) | 0.0052 | 0.257 | 0.0349 | 1.32
CC[C@H](C)[C@H](NC(=O)[C@H](Cc1ccccc1)NC(=O)[C@H](CCC(=O)O)NC(=O)[C@H](CCCNC(=N)N)NC(=O)[C@H](C)NC(=O)[C@H](C)NC(=O)[C@H](CCC(N)=O)NC(=O)[C@H](CCCCNC(=O)[C@@H](N)CCCCNC(=O)[C@@H](N)CCCCNC(=O)CC[C@H](NC(=O)CCCCCCCCCCCCCCCCC(=O)O)C(=O)O)NC(=O)[C@H](CCC(=O)O)NC(=O)[C@H](CC(C)C)NC(=O)[C@H](CC(C)C)NC(=O)[C@@H](NC(=O)[C@H](CO)NC(=O)[C@H](Cc1ccc(O)cc1)NC(=O)[C@H](CC(=O)O)NC(=O)[C@H](CO)NC(=O)[C@@H](NC(=O)[C@H](Cc1ccccc1)NC(=O)[C@@H](NC(=O)CNC(=O)[C@H](CCC(=O)O)NC(=O)C(C)(C)NC(=O)[C@@H](N)Cc1ccc(O)cc1)[C@@H](C)O)[C@@H](C)O)[C@@H](C)CC)C(=O)N[C@@H](CC(N)=O)C(=O)N[C@@H](Cc1c[nH]c2ccccc12)C(=O)N[C@@H](CC(C)C)C(=O)N[C@@H](CC(C)C)C(=O)N[C@@H](C)C(=O)NCC(=O)O [Compound 18] (H-Y[Aib]EGTFTSDYSILLEK([εLys-εLys-γGlu-C18 diacid])QAAREFINWLLAG-OH) | 0.0197 | 0.226 | 0.0209 | 0.285
